Counter-ions that a name gives are not always drawn.
Biological target: human RAF1 (Homo sapiens (Human), UniProt P04049)
Assay: Protein kinase assay (radiometric 33P-ATP, MEK1 (K97R) substrate), RAF-1
Format: biochemical
Conditions: human MEK1 (K97R) substrate 3 micromolar, ATP 10 micromolar; 10-dose, 3-fold serial dilution starting at 10 micromolar; read-out: RAF-1 IC50
Experimental: Example 1: Kinase Assay Protocol
Assay platform was used to measure kinase/inhibitor interactions as described previously (Anastassiadis et al., 2011). In brief, for each reaction, kinase and substrate were mixed in a buffer containing 20 mM HEPES (pH 7.5), 10 mM MgCl2, 1 mM EGTA, 0.02% Brij35, 0.02 mg/mL BSA, 0.1 mM Na3VO4, 2 mM DTT, and 1% DMSO. All compounds were solubilized in DMSO. Compounds were then added to each reaction mixture via acoustic dispense using an ECHO 550 nanoliter dispenser. For human RAF1 testing, human MEK1 (K97R) was used as a substrate at a concentration of 3 micromolar, with a final ATP concentration of 10 micromolar. For human BRAF testing, human MEK1 (K97R) was used as a substrate at 1 micromolar concentration, with a final ATP concentration of 25 micromolar. […] After a 20-min incubation, ATP (Sigma-Aldrich, St. Louis, Mo. 63178) and [g33P] ATP (specific activity 10 microCi/microliter) purchased at PerkinElmer (Boston, Mass., 02118 Cat #BLU 003H250UC) were added at a final total concentration of […]. Reactions were carried out at room temperature for 2 hr and spotted onto P81 ion exchange cellulose chromatography paper (Reaction Biology). Filter paper was washed in 0.75% phosphoric acid to remove unincorporated ATP. The percent remaining kinase activity relative to a vehicle-containing (DMSO) kinase reaction was calculated for each kinase/inhibitor pair. IC50 values were calculated using Prism 5 (GraphPad).

human RAF1, sequence (P04049 whole entry): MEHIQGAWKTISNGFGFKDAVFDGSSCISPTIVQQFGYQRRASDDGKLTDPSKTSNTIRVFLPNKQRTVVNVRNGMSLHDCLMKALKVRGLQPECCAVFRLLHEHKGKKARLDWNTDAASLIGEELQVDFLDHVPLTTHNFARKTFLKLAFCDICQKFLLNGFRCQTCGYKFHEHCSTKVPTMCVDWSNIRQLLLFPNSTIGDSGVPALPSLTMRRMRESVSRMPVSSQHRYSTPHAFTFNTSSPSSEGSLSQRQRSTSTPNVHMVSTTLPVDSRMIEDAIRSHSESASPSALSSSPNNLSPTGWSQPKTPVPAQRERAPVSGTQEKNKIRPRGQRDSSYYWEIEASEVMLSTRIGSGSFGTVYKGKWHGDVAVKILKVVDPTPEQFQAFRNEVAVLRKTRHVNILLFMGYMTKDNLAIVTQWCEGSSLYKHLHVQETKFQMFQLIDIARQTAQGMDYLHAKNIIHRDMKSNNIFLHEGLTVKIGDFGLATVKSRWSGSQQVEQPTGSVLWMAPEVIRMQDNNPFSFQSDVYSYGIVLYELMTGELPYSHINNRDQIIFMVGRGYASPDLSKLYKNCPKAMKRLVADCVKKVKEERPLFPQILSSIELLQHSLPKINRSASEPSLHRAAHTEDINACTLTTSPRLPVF

Structure (SMILES)	IC50 [nM]
Cc1ccc(NC(=O)N2CC[C@@H](CC(F)(F)F)C2)cc1-c1cc(C(=O)N[C@H](C)CO)nc(N2CCOCC2)c1 [Example 6, N-[(2R)-1-hydroxypropan-2-yl]-4-[2-methyl-5-[(3S)-3-(2,2,2-trifluoroethyl)pyrrolidine-1-carbonylamino]phenyl]-6-(morpholin-4-yl)pyridine-2-carboxamide]	1 to 10
Cc1ccc(NC(=O)N2CC[C@@H](CC(F)(F)F)C2)cc1-c1cc(C(=O)N2CC(O)C2)nc(N2CCOCC2)c1 [Example 20, (3S)—N-[3-[2-(3-hydroxyazetidine-1-carbonyl)-6-(morpholin-4-yl)pyridin-4-yl]-4-methylphenyl]-3-(2,2,2-trifluoroethyl)pyrrolidine-1-carboxamide]	< 1
Cc1ccc(NC(=O)N2CC[C@@H](CC(F)(F)F)C2)cc1-c1cc(C2=CCN(C)C2)nc(N2CCOCC2)c1 [Example 35, (3S)—N-[4-methyl-3-[2-(1-methyl-2,5-dihydropyrrol-3-yl)-6-(morpholin-4-yl)pyridin-4-yl]phenyl]-3-(2,2,2-trifluoroethyl)pyrrolidine-1-carboxamide]	1 to 10
Cc1ccc(NC(=O)N2CC[C@@H](CC(F)(F)F)C2)cc1-c1cc(C(=O)NCC(C)(C)O)nc(N2CCOCC2)c1 [Example 9, N-(2-hydroxy-2-methylpropyl)-4-[2-methyl-5-[(3S)-3-(2,2,2-trifluoroethyl)pyrrolidine-1-carbonylamino]phenyl]-6-(morpholin-4-yl)pyridine-2-carboxamide]	1 to 10
Cc1ccc(NC(=O)N2CC[C@@H](CC(F)(F)F)C2)cc1-c1cc(C#CC(C)(C)O)nc(N2CCOCC2)c1 [Example 10, (3S)—N-[3-[2-(3-hydroxy-3-methylbut-1-yn-1-yl)-6-(morpholin-4-yl)pyridin-4-yl]-4-methylphenyl]-3-(2,2,2-trifluoroethyl)pyrrolidine-1-carboxamide]	1 to 10
Cc1ccc(NC(=O)N2CC[C@@H](CC(F)(F)F)C2)cc1-c1cc(-c2cc(C)n(C)n2)nc(N2CCOCC2)c1 [Example 52, (3S)—N-[3-[2-(1,5-dimethylpyrazol-3-yl)-6-(morpholin-4-yl)pyridin-4-yl]-4-methylphenyl]-3-(2,2,2-trifluoroethyl)pyrrolidine-1-carboxamide]	1 to 10
Cc1ccc(NC(=O)N2CC[C@@H](CC(F)(F)F)C2)cc1-c1cc(-c2ccnc(C(F)F)c2)nc(N2CCOCC2)c1 [Example 46, (3S)—N-[3-[2′-(difluoromethyl)-6-(morpholin-4-yl)-[2,4′-bipyridin]-4-yl]-4-methylphenyl]-3-(2,2,2-trifluoroethyl)pyrrolidine-1-carboxamide]	1 to 10
Cc1ccc(NC(=O)N2CC[C@@H](CC(F)(F)F)C2)cc1-c1cc(-c2c[nH]nc2C)nc(N2CCOCC2)c1 [Example 47, (3S)—N-[4-methyl-3-[2-(3-methyl-1H-pyrazol-4-yl)-6-(morpholin-4-yl)pyridin-4-yl]phenyl]-3-(2,2,2-trifluoroethyl)pyrrolidine-1-carboxamide]	1 to 10
Cc1ccc(NC(=O)N2CC[C@@H](CC(F)(F)F)C2)cc1-c1cc(-c2cncs2)nc(N2CCOCC2)c1 [Example 15, (3S)—N-[4-methyl-3-[2-(morpholin-4-yl)-6-(1,3-thiazol-5-yl)pyridin-4-yl]phenyl]-3-(2,2,2-trifluoroethyl)pyrrolidine-1-carboxamide]	1 to 10
Cc1ccc(NC(=O)N2CC[C@@H](CC(F)(F)F)C2)cc1-c1cc(C2CCN(C)C2)nc(N2CCOCC2)c1 (stereo partly drawn) [Example 38, (3S)—N-(4-methyl-3-(2-(1-methylpyrrolidin-3-yl)-6-morpholinopyridin-4-yl)phenyl)-3-(2,2,2-trifluoroethyl)pyrrolidine-1-carboxamide formate]	1 to 10
Cc1cc(F)c(NC(=O)N2CC[C@H](C(F)(F)C(F)(F)F)C2)cc1-c1cc(-c2cnn(C)c2)nc(N2CCOCC2)c1 (single isomer, unassigned) [Example 81]	1 to 10
Cc1ccc(NC(=O)N2CC[C@@H](CC(F)(F)F)C2)cc1-c1cc(-c2ccnc(O)c2)nc(N2CCOCC2)c1 [Example 30, (3S)—N-[3-[2-hydroxy-6-(morpholin-4-yl)-[2,4-bipyridin]-4-yl]-4-methylphenyl]-3-(2,2,2-trifluoroethyl)pyrrolidine-1-carboxamide]	1 to 10
Cc1ccc(NC(=O)N2CC[C@@H](CC(F)(F)F)C2)cc1-c1cc(-c2ccnc(N)c2)nc(N2CCOCC2)c1 [Example 40, (3S)—N-[3-[2′-amino-6-(morpholin-4-yl)-[2,4′-bipyridin]-4-yl]-4-methylphenyl]-3-(2,2,2-trifluoroethyl)pyrrolidine-1-carboxamide]	1 to 10
Cc1ccc(NC(=O)N2CC[C@@H](CC(F)(F)F)C2)cc1-c1cc(-c2nncn2C)nc(N2CCOCC2)c1 [Example 61, (3S)—N-{4-methyl-3-[2-(4-methyl-1,2,4-triazol-3-yl)-6-(morpholin-4-yl)pyridin-4-yl]phenyl}-3-(2,2,2-trifluoroethyl)pyrrolidine-1-carboxamide]	1 to 10
Cc1ccc(NC(=O)N2CC[C@@H](CC(F)(F)F)C2)cc1-c1cc(-c2cn(C)cn2)nc(N2CCOCC2)c1 [Example 54, (3S)—N-{4-methyl-3-[2-(1-methylimidazol-4-yl)-6-(morpholin-4-yl)pyridin-4-yl]phenyl}-3-(2,2,2-trifluoroethyl)pyrrolidine-1-carboxamide]	1 to 10
Cc1ccc(NC(=O)N2CC[C@@H](CC(F)(F)F)C2)cc1-c1cc(-c2c[nH]cn2)nc(N2CCOCC2)c1 [Example 53, (3S)—N-[3-[2-(1H-imidazol-4-yl)-6-(morpholin-4-yl)pyridin-4-yl]-4-methylphenyl]-3-(2,2,2-trifluoroethyl)pyrrolidine-1-carboxamide]	1 to 10
Cc1ccc(NC(=O)N2CC[C@@H](CC(F)(F)F)C2)cc1-c1cc(C2CCCN(C)C2)nc(N2CCOCC2)c1 (stereo partly drawn) [Example 29, (3S)—N-[4-methyl-3-[2-(1-methylpiperidin-3-yl)-6-(morpholin-4-yl)pyridin-4-yl]phenyl]-3-(2,2,2-trifluoroethyl)pyrrolidine-1-carboxamide]	1 to 10
Cc1ccc(NC(=O)N2CC[C@@H](OC(F)(F)F)C2)cc1-c1cc(-c2cnn(C)c2)nc(N2CCOCC2)c1 [Example 64, (3R)—N-{4-methyl-3-[2-(1-methylpyrazol-4-yl)-6-(morpholin-4-yl)pyridin-4-yl]phenyl}-3-(trifluoromethoxy)pyrrolidine-1-carboxamide]	1 to 10

More lines, now with the values ahead:

IC50 [nM]	Structure (SMILES)
< 1	Cc1cc(F)c(NC(=O)N2CC[C@@H](C(C)(F)F)C2)cc1-c1cc(-c2cnn(C)c2)nc(N2CCOCC2)c1 (single isomer, unassigned) [Example 84]
1 to 10	Cc1ccc(NC(=O)N2CC[C@@H](CC(F)(F)F)C2)cc1-c1cc(C(F)F)nc(N2CCOCC2)c1 [Example 57, (3S)—N-{3-[2-(difluoromethyl)-6-(morpholin-4-yl)pyridin-4-yl]-4-methylphenyl}-3-(2,2,2-trifluoroethyl)pyrrolidine-1-carboxamide]
< 1	Cc1cc(F)c(NC(=O)N2CCO[C@H](C(F)(F)F)C2)cc1-c1cc(-c2cnn(C)c2)nc(N2CCOCC2)c1 [Example 67, (2S)—N-{2-fluoro-4-methyl-5-[2-(1-methylpyrazol-4-yl)-6-(morpholin-4-yl)pyridin-4-yl]phenyl}-2-(trifluoromethyl)morpholine-4-carboxamide]
< 1	Cc1ccc(NC(=O)N2CC[C@@H](CC(F)(F)F)C2)cc1-c1cc(-c2ccnn2C)nc(N2CCOCC2)c1 [Example 49, (3S)—N-[4-methyl-3-[2-(2-methylpyrazol-3-yl)-6-(morpholin-4-yl)pyridin-4-yl]phenyl]-3-(2,2,2-trifluoroethyl)pyrrolidine-1-carboxamide]
< 1	Cc1ccc(NC(=O)N2CC[C@@H](CC(F)(F)F)C2)cc1-c1cc(-c2ccn(C)n2)nc(N2CCOCC2)c1 [Example 36, (3S)—N-[4-methyl-3-[2-(1-methylpyrazol-3-yl)-6-(morpholin-4-yl)pyridin-4-yl]phenyl]-3-(2,2,2-trifluoroethyl)pyrrolidine-1-carboxamide]
< 1	Cc1ccc(NC(=O)N2CC[C@@H](CC(F)(F)F)C2)cc1-c1cc(CCCO)nc(N2CCOCC2)c1 [Example 24, (3S)—N-[3-[2-(3-hydroxypropyl)-6-(morpholin-4-yl)pyridin-4-yl]-4-methylphenyl]-3-(2,2,2-trifluoroethyl)pyrrolidine-1-carboxamide]
< 1	Cc1cc(F)c(NC(=O)N2CCO[C@@H](C(F)(F)F)C2)cc1-c1cc(-c2cnn(C)c2)nc(N2CCOCC2)c1 [Example 68, (2R)—N-{2-fluoro-4-methyl-5-[2-(1-methylpyrazol-4-yl)-6-(morpholin-4-yl)pyridin-4-yl]phenyl}-2-(trifluoromethyl)morpholine-4-carboxamide]
< 1	CCc1cc(-c2cc(NC(=O)N3CC[C@@H](CC(F)(F)F)C3)c(F)cc2C)cc(N2CCOCC2)n1 [Example 72, (3S)—N-{5-[2-ethyl-6-(morpholin-4-yl)pyridin-4-yl]-2-fluoro-4-methylphenyl}-3-(2,2,2-trifluoroethyl)pyrrolidine-1-carboxamide]
